Measured values as given in paper PMC3344887 (PLoS ONE, 2012).
Where “and” joins values, the source holds several entries; their conditions need not be identical. Equal entries are not always repeated. Where two headings read alike, the source gives them in different places.

What was measured:
clinical = details: for AUC(0-t): AUC0-6
Method: (§1) Identical placebo (lactose) capsules were prepared. […] Drugs were administered without food.
(§2) Plasma concentrations of copeptin were also determined in this study as reported elsewhere. […] No hydrolysis was performed. Thus, the values for HMMA represent the drug concentrations of the non-conjugated metabolite. All blood samples were collected on ice and centrifuged within 10 min at 4°C. The plasma was then stored at –20°C until the analysis.
Cmax and tmax were obtained directly from the observed concentration-time curves. […] Terminal elimination half-life (t 1/2) was calculated using λz and the equation t1/2 = ln2/λz. The area under the plasma concentration-time curve up to 6 h (AUC0-6h) was calculated using the linear trapezoidal rule. The AUC0–∞ was determined by extrapolation of AUC0–6h using λz. The PK parameters were determined using the PK functions for Excel (Microsoft, Redmont, CA, USA). Plasma concentrations were only determined up to 6 h after MDMA administration because the aim of the study was to assess potential changes in MDMA plasma levels while relevant pharmacodynamic effects or MDMA were present.

NCCc1c[nH]c2ccc(O)cc12 = assay: cells, lysate or membranes; details: other: method A
NE transporter [1] = details: cited from earlier work
healthy subjects [2] = assay: Visual Analog Scales, subjective drug effects, clinical study; format: in vivo, humans; details: peak change from baseline, mean±SEM, 16 subjects
Method: (§3) The washout periods between the sessions were at least 10 days long.
as §1
(§4) The psychometric measures included Visual Analog Scales (VAS), [10], the Adjective Mood Rating Scale (AMRS), and 5-Dimensions of Altered States of Consciousness (5D-ASC), [23]. […] The VASs were presented as 100 mm horizontal lines marked “not at all" on the left and “extremely" on the right. The VASs for “closeness to others," “open," and “talkative" were bidirectional (±50 mm). The VASs were administered 4 h before and 0, 0.33, 1, 1.5, 2, 2.5, 3, 3.5, 4, and 5 h after MDMA or placebo administration. […] The AMRS contains subscales for activity, extroversion and introversion, well-being, emotional excitation, anxiety-depression, and dreaminess. The 5D-ASC rating scale measures alterations in mood, perception, experience of self in relation to the environment, and thought disorder. The 5D-ASC rating scale comprises five subscales or dimensions and 11 lower-order scales. The 5D-ASC dimension “oceanic boundlessness" (OB, 27 items) measures derealization and depersonalization associated with positive emotional states, ranging from heightened mood to euphoric exaltation. […] The global ASC score was determined by adding the OB, AED, and VR scores. The 5D-ASC scale was administered 4 h after MDMA or placebo administration.
(§5) Clinical data values were transformed to differences from baseline. Peak effects (Emax) were determined for repeated measures. Emax values were compared using General Linear Models repeated-measures analysis of variance, with drug as within-subject factor, using Statistica 6.0 software (StatSoft, Tulsa, OK). Tukey post hoc comparisons were performed based on significant main effects of treatment. Additional analyses of variance were performed, with period as factor to exclude period effects. Correlation analyses were performed using Pearson’s correlations. The criterion for significance was p<0.05. Mean arterial pressure (MAP) was calculated from diastolic blood pressure and systolic blood pressure using the following formula: MAP = DBP+(SBP - DBP)/3.

healthy subjects [3] = assay: 5-Dimensions of Altered States of Consciousness (5D-ASC), clinical study; format: in vivo, humans; details: p<0.001
Method: as §3, §1, §4

DAT [4] = details: cited from earlier work
NE transporter [5] = details: read-out: Ki, NE transporter; rat cortex synaptosomes; cited from earlier work
patients = details: 60-120 mg/day; cited from earlier work
healthy subjects [6] = assay: Adverse effects, List of Complaints, clinical study
Method: as §3, §1
(§6) Physiologic measures were assessed repeatedly 4, 3, 2, and 1 h before and 0, 0.33, 0.66, 1, 1.5, 2, 2.5, 3, 4, 5, and 6 h after MDMA or placebo administration. Heart rate, systolic blood pressure, and diastolic blood pressure were measured using an OMRON M7 blood pressure monitor (OMRON Healthcare Europe, Hoofddorp, The Netherlands). Measures were taken twice per time point with an interval of 1 min, and the average was used for the analysis. Core (tympanic) temperature was assessed using a GENIUS 2 ear thermometer (Tyco Healthcare Group, Watertown, NY). […] Adverse effects were assessed using the List of Complaints (LC), which consists of 66 items that yield a total adverse effects score and reliably measure physical and general discomfort.

healthy subjects [7] = assay: Physiologic measures (blood pressure, heart rate, body temperature), clinical study; format: in vivo, humans; details: peak change from baseline, mean±SEM, 16 subjects
Method: as §3, §1, §6, §5

SERT = SERT (Homo sapiens, UniProt P31645)
Chain of SERT (P31645 whole entry): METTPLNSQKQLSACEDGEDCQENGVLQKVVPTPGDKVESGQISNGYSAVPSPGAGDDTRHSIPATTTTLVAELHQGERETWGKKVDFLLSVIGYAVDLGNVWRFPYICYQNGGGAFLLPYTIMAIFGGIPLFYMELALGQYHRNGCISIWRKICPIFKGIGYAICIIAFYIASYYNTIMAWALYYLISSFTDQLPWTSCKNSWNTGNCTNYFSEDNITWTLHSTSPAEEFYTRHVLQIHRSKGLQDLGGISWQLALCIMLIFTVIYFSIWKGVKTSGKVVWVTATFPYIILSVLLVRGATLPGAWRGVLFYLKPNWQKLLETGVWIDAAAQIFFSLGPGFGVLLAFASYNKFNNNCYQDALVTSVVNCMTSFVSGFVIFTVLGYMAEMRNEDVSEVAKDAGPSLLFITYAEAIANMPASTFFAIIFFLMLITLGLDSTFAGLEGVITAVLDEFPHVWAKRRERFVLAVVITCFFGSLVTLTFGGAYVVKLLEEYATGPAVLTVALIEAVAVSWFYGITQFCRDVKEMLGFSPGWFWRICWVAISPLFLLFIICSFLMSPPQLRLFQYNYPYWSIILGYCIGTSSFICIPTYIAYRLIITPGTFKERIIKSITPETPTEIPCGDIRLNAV
Text: The procedures were adapted from previous studies, [3]. […] This transports the cells through the silicon oil layer to the KOH layer, thereby separating the cells from the buffer, which remains on top of the silicon oil layer. The centrifuge tubes were then transferred to liquid nitrogen. The amount of tracer that remained in the cells was quantified by cutting the frozen centrifuge tube above the KOH/oil interface and putting the tip of the tube with the cell pellet in a scintillation vial that contained 500 µl lysis buffer (0.05 M TRIS-HCl, 50 mM NaCl, 5 mM EDTA, and 1% Nonidet P-40 substitute in water). The samples were then shaken for 1 h on a rotary shaker, and 7 ml of scintillation fluid (Ultimagold, Perkin Elmer, Schwerzenbach, Switzerland) was added. Cell-associated radioactivity was then counted. […] Dose-response curves were generated using 9–11 concentrations of MDMA/MDA. […] All data points were derived from at least three independent experiments, each assayed in triplicate. The data were fit by non-linear regression, and EC50 and Emax values were calculated using Prism (GraphPad, San Diego, CA).

healthy subjects [8] = assay: Circulating plasma catecholamines, clinical study; format: in vivo, humans; details: peak change from baseline, mean±SEM, 16 subjects
Method: as §3, §1, §2

healthy subjects [9] = assay: Adjective Mood Rating Scale (AMRS), clinical study; format: in vivo, humans; details: peak change from baseline, mean±SEM, 16 subjects
Method: as §3, §1, §4, §5

[10] = cited from earlier work; for Mean plasma Cmax: healthy volunteers
NET [11] = target: T1, NET (Homo sapiens, UniProt P23975); assay: [3H]-NE uptake inhibition, method A (silicon oil); format: cell-based; parameters: expressed in transfected cells; host or cells: HEK 293 cells (Invitrogen), stably transfected
T1 sequence (P23975 whole entry): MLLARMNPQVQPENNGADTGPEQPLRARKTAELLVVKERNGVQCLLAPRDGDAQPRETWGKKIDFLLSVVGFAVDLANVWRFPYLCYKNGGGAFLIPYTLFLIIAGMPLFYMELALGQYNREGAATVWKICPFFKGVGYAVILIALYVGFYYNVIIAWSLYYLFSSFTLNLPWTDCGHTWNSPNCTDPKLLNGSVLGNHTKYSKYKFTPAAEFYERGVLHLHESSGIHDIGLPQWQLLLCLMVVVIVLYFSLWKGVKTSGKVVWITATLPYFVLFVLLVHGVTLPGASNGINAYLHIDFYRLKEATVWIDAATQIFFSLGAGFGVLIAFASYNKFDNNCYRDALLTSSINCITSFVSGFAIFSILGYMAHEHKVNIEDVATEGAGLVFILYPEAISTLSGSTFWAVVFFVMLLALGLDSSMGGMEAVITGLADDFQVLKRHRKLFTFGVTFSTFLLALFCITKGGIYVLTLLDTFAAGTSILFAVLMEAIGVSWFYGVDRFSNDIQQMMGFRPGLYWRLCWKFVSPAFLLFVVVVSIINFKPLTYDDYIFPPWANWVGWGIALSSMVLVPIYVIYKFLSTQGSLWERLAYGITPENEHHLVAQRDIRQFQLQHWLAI

NET [12] = target: T1, NET; assay: Radioligand binding, [3H]-nisoxetine, HEK 293 membranes; parameters: expressed in transfected cells; host or cells: HEK 293 cells (Invitrogen), stably transfected
DAT [13] = target: T2, DAT (Homo sapiens, UniProt Q01959); assay: Radioligand binding, [3H]-WIN35,428, HEK 293 membranes; parameters: expressed in transfected cells; host or cells: HEK 293 cells (Invitrogen), stably transfected
DAT [14] = target: T2, DAT; assay: cell-based
[15] = substrate: NCCc1ccc(O)c(O)c1; assay: cells, lysate or membranes; details: other: method A
[16] = Duloxetine-MDMA session, mean±SEM, n=16
[17] = Placebo-MDMA session, mean±SEM, n=16
[18] = duloxetine-MDMA vs placebo-MDMA

## CNC(C)Cc1ccc(O)c(OC)c1 (stereo not drawn) [HMMA, 4-hydroxy-3-methoxymethamphetamine]
clinical; Duloxetine-MDMA session (duloxetine 120 mg 16 and 4 h before MDMA 125 mg), plasma, mean±SEM, n=16
  Cmax: 2.00 ± 0.38 ng/mL
clinical; [16]
  AUC0-6: 8.14 ± 1.45 ng·h/mL
  Tmax: 1.89 ± 0.25 h
clinical; Placebo-MDMA session (MDMA 125 mg), plasma, mean±SEM, n=16
  Cmax: 3.36 ± 0.34 ng/mL
clinical; [17]
  AUC0-6: 13.57 ± 1.58 ng·h/mL
  Tmax: 1.84 ± 0.17 h
clinical; [18]
  Decrease in AUC0-6h by duloxetine: 48±6%
  Decrease in Cmax by duloxetine: 46±6%

## human SERT (Homo sapiens)
NCCc1c[nH]c2ccc(O)cc12
  Km: 0.489 ± 0.147 µM

## CNCCCN1c2ccccc2CCc2ccccc21 [desipramine]
NE transporter [1]; no reference given
  Block of thyramine-induced SBP responses: completely blocked

## CNCC[C@H](Oc1cccc2ccccc12)c1cccs1 [Duloxetine]
NE transporter [1]; 60 mg for 14 days
  Block of thyramine-induced increases in systolic blood pressure: not able to block
NE transporter [1]; dose of 80-120 mg
  Suppression of blood pressure increase due to thyramine: effective in suppressing
clinical; human, in vivo
  Cmax: 112 ± 7.06 ng/mL
  concentration at 120 min: 314 ± 2.5 nM
  AUC(0-t): 800 ± 74.4 ng·h/mL
clinical; human, in vivo, 120 mg
  Cmax: 107 ± 10.2 ng/mL
clinical; human, in vivo, AUC(0-∞)
  AUC(0-inf): 1960 ± 230 ng·h/mL
clinical; human, in vivo, Plasma concentration Cmax, text of b61
  Cmax: 112 ng/mL and 380 nM
clinical; human, in vivo, T1/2
  half-life: 11 ± 1.04 h
clinical; human, in vivo, Tmax
  Tmax: 5.14 ± 0.29 h
Healthy subjects [2]
  VAS Any drug effect, Emax: 6.00±2.52
  VAS Closeness, Emax: 0.00±0.00
  VAS Drug high, Emax: 4.81±2.93
  VAS Drug liking, Emax: 7.56±4.43
  VAS Good drug effect, Emax: 8.75±5.01
  VAS Open, Emax: 0.38±0.38
  VAS Stimulated, Emax: 5.13±2.45
  VAS Talkative, Emax: 0.31±0.31
Healthy subjects [3]
  Effect on MDMA's effects on the total ASC score: robustly reduced
DAT [4]
  Lower potency at DAT compared with SERT and NET: 10- to 100 fold
NE transporter [5]
  Ki: 0.0021 µM
patients
  Incidence of constipation: 11%
  Incidence of decreased appetite: 8%
  Incidence of dizziness: 9-11%
  Incidence of dry mouth: 15-18%
  Incidence of fatigue: 14%
  Incidence of headache: 20%
  Incidence of insomnia: 11-15%
  Incidence of nausea: 20-29%
  Incidence of sweating: 6%
Healthy subjects [6]; at 3 h, change from baseline, mean±SEM, 16 subjects
  List of Complaints (total score), Acute adverse effects: −1.81±1.09
Healthy subjects [6]; at 24 h, change from baseline, mean±SEM, 16 subjects
  List of Complaints (total score), Sub-acute adverse effects: −2.88±1.35
Healthy subjects [6]; clinical study
  Adverse effects produced: daytime somnolence and moderate insomnia
Healthy subjects [7]; diastolic blood pressure
  DPB, Emax: 6.00±0.97 mm Hg
Healthy subjects [7]; mean arterial pressure
  MAP, Emax: 5.11±1.01 mm Hg
Healthy subjects [7]
  Heart rate, Emax: 5.06±1.27 beats/min
Healthy subjects [7]; systolic blood pressure
  SBP, Emax: 6.19±1.42 mm Hg
Healthy subjects [7]; tympanic
  Body temperature, Emax: 0.19±0.04 °C
SERT
  Effect on MDMA- and MDA-induced 5-HT release: completely blocked
Healthy subjects [8]
  Circulating Epinephrine, Emax: 0.46 ± 0.10 nM
  Circulating Norepinephrine, Emax: -0.18 ± 0.07 nM
Healthy subjects [9]
  AMRS Activity, Emin: −2.69±0.69
  AMRS Dreaminess, Emax: 1.35±0.35
  AMRS Emotional excitation, Emax: 0.69±0.27
  AMRS Extroversion, Emax: 0.38±0.16
  AMRS Introversion, Emax: 1.13±0.30
  AMRS Well-being, Emax: 0.38±0.16
[10]; 40 mg once daily
  Mean Cmax at steady state: 35 ng/mL
  Trough level at 24h at steady state: approximately 10 ng/mL
[10]; after pretreatment with paroxetine
  Increase of AUC: 1.6 fold
[10]
  Elimination half-life: 12 h
  Tmax: 6 h
[10]; daily 60 mg
  Mean Cmax, population PK: 30 to 60 ng/mL
  Mean trough level at 24h, population PK: ~25 ng/mL
[10]; patients, daily 120 mg
  Peak level at steady state: 100 ng/mL
  Trough level at steady state: 50 ng/mL
[10]; single oral dose 30 mg
  Mean plasma Cmax: 22 ng/mL
[10]; single oral dose 60 mg
  Mean plasma Cmax: 44 ng/mL
[10]; single oral dose 90 mg
  Mean plasma Cmax: 61 ng/mL

## CC(N)Cc1ccc2c(c1)OCO2 (stereo not drawn) [MDA, 3,4-methylenedioxyamphetamine]
clinical; human, in vivo
  Cmax: 10.7 ± 0.72 ng/mL
  AUC(0-t): 46.6 ± 3.02 ng·h/mL
clinical; human, in vivo, 125 mg
  Cmax: 11.8 ± 0.7 ng/mL
clinical; human, in vivo, Tmax
  Tmax: 5.5 ± 0.22 h
NET [11]
  Ki: 0.341 µM
NET [12]
  Ki: 17.8 ± 4.06 µM
DAT [13]
  Ki: 26.4 ± 4.24 µM
DAT [14]
  Ki: 11 µM

B1: human DAT (Homo sapiens) (protein)
chain: MSKSKCSVGLMSSVVAPAKEPNAVGPKEVELILVKEQNGVQLTSSTLTNPRQSPVEAQDRETWGKKIDFLLSVIGFAVDLANVWRFPYLCYKNGGGAFLVPYLLFMVIAGMPLFYMELALGQFNREGAAGVWKICPILKGVGFTVILISLYVGFFYNVIIAWALHYLFSSFTTELPWIHCNNSWNSPNCSDAHPGDSSGDSSGLNDTFGTTPAAEYFERGVLHLHQSHGIDDLGPPRWQLTACLVLVIVLLYFSLWKGVKTSGKVVWITATMPYVVLTALLLRGVTLPGAIDGIRAYLSVDFYRLCEASVWIDAATQVCFSLGVGFGVLIAFSSYNKFTNNCYRDAIVTTSINSLTSFSSGFVVFSFLGYMAQKHSVPIGDVAKDGPGLIFIIYPEAIATLPLSSAWAVVFFIMLLTLGIDSAMGGMESVITGLIDEFQLLHRHRELFTLFIVLATFLLSLFCVTNGGIYVFTLLDHFAAGTSILFGVLIEAIGVAWFYGVGQFSDDIQQMTGQRPSLYWRLCWKLVSPCFLLFVVVVSIVTFRPPHYGAYIFPDWANALGWVIATSSMAMVPIYAAYKFCSLPGSFREKLAYAIAPEKDRELVDRGEVRQFTLRHWLKV
[15]
  Km: 1.707 ± 0.297 µM
